What was measured:
PTP1B [1] = details: PTP1B over TCPTP; cited from earlier work
PTP1B [2] = assay: pNPP enzyme kinetics, inhibition by amorphadiene; type: biochemical, H. Sapiens
Procedure: (§1) We overexpressed all proteins examined in this study in BL21(DE3) cells by carrying out steps described previously: (i) We used Gibson assembly to introduce mutations for PTP1B or TCPTP encoded by a pET16b vector and transformed sequence-confirmed plasmids into BL21(DE3) cells. (ii) We used an individual colony from each transformation to inoculate 20 mL of LB media, which we incubated at 37°C in an incubator-shaker (225 rpm) for 6 hours, prior to inoculating 1 L of rich induction media (20 g tryptone, 10 g yeast extract, 5 g sodium chloride, 50 μg/mL carbenicillin, 72 mL 5X M9 salts solution, 20 mL of 20% glucose solution). (iii) We grew the resulting inoculum at 37°C and 225 rpm. (iv) At an OD600 of 0.5–0.8, we added 500 μM IPTG to induce protein expression and incubated the induced flasks at 22°C and 225 rpm for 18–20 hours. (v) We pelleted the final culture (5000 rpm for 10 minutes in a Beckman J2-HS floor centrifuge), disposed of the supernatants, and stored the cell pellets at −80°C freezer for future purification. We purified PTP variants with fast protein liquid chromatography (FPLC) using previously described protocols. In brief, we lysed cells with chemical lysis buffer (for each gram of cell pellet, we used 4 mL of 20 mM tris base, 50 mM sodium chloride, 1% Triton X-100, and pH 7.5 supplemented with 2 mg MgSO4–7H2O, 2 mg TAME, 0.5 mL TCEP (0.5 mM), 3.75 μL PMSF solution, 1 mg lysozyme, and 30 U DNase), removed protein debris with saturated ammonium sulfate (20% for PTP1B variants and 10% TCPTP variants, respectively), and extracted the supernatant. We purified PTPs by using nickel affinity chromatography (HisTrap HP with 50 mM Tris-HCl, 300 mM sodium chloride, and 0.5 mM TCEP at pH 7.5 with and without 500 mM imidazole) followed by anion exchange chromatography (HiTrap HP 5 mL with 50 mM HEPES, and 0.5 mM TCEP at pH 7.5 with and without 1 M NaCl). We concentrated final protein fractions into NaCl-free anion exchange buffer ([…], Sartorius) and stored them in 20% glycerol at −80°C.
(§2) We characterized the activity of PTP variants on p-nitrophenyl phosphate (pNPP). In brief, we used 96-well plates to prepare 200-μL reactions with 50 nM enzyme, 50 μg/mL BSA, and varying amorphadiene concentrations (0.5 – 500 μM) in 50 mM HEPES buffer (pH = 7.3) with 10% DMSO. We used 20 mM substrate to initialize the reactions and monitored the formation of p-nitrophenol (pNP) by measuring absorbance at 405 nm at 30-s intervals over 8 minutes (SpectraMax iD3 plate reader). We used standard curves to convert absorbance measurements to product concentrations and used the slopes of the initial rate regime for Vo.

TCPTP = assay: pNPP enzyme kinetics, inhibition by amorphadiene; type: biochemical, H. Sapiens
Procedure: as §1, §2

Solubility = type: physicochemical

## CCc1oc2cc(S(=O)(=O)Nc3ccc(S(=O)(=O)Nc4nccs4)cc3)ccc2c1C(=O)c1cc(Br)c(O)c(Br)c1 [BBR, 3-(3,5-Dibromo-4-hydroxy-benzoyl)-2-ethyl-benzofuran-6-sulfonic-acid-(4-(thiazol-2-ylsulfamyl)-phenyl)-amide, reference compound]
PTP1B [1]
  selectivity: inhibits PTP1B more potently than TCPTP: 5–6 X

## C=C(C)[C@@H]1CC[C@@H](C)[C@@H]2CCC(C)=C[C@@H]21 [AD, amorphadiene]
PTP1B [2]; PTP1B L158F vs wild-type
  IC50 of AD, mutant vs wild-type: indistinguishable
PTP1B [2]; PTP1B M282K
  IC50 of AD, mutant vs wild-type: reduced potency
PTP1B [2]; PTP1B Q290R
  IC50 of AD, mutant vs wild-type: reduced potency
TCPTP; TCPTP K280M
  IC50 of AD, mutant vs wild-type: no effect on IC50
TCPTP; TCPTP L158F vs wild-type
  IC50 of AD, mutant vs wild-type: indistinguishable
TCPTP; TCPTP R288Q
  IC50 of AD, mutant vs wild-type: no effect on IC50
PTP1B [1]
  selectivity: inhibits PTP1B more potently than TCPTP: 5–7 X

## CC(C)=CCC=C(C)C1CC=C(C)CC1 (stereo not drawn) [AB, α-bisabolene]
Solubility
  solubility: low solubility
PTP1B [1]
  selectivity: inhibits PTP1B more potently than TCPTP: 5–7 X
